Activity calls are given as the source filed them. The rule behind the calls is not given here.
Legend:
MCF7 [1] = test: Induction of apoptosis in human MCF7 cells assessed as decrease in Bcl-2/Bax ratio by western blot analysis; format: functional, cell-based; conditions: DDE = dose-dependent effect
[2] = Toxicity in BALB/C mouse xenografted with human MCF7 cells assessed as morphological changes in liver at 10 to 20 mg/kg, po by hematoxylin and eosin staining based analysis; format: organism-based; conditions: in vivo, dose 10-20 mg/kg
MCF7 [3] = test: Induction of apoptosis in human MCF7 cells assessed as total apoptotic cells at 0.5 uM incubated for 48 hrs by annexin V-FITC staining based flow cytometry; format: functional
[4] = Toxicity in BALB/C mouse xenografted with human MCF7 cells assessed as morphological changes in kidney at 10 to 20 mg/kg, po by hematoxylin and eosin staining based analysis; format: organism-based; conditions: in vivo, dose 10-20 mg/kg
[5] = AUC in BALB/C mouse at 20 mg/kg, po by LC-MS/MS analysis; format: ADME, organism-based; set-up: dose 20 mg/kg, route po; conditions: in vivo
LCC2 [6] = test: Induction of apoptosis in tamoxifen-resistant human LCC2 cells assessed as increase in late apoptotic cells at 5 to 30 uM incubated for 48 hrs by annexin V-FITC staining based flow cytometry; format: functional, cell-based; conditions: dose 5-30 µM
[7] = Toxicity in BALB/C mouse xenografted with tamoxifen-resistant human LCC2 cells assessed as mortality at 20 mg/kg, po measured after 22 days; format: organism-based; conditions: in vivo, 528 h, time 22 day
MCF7 [8] = test: Induction of mitochondrial membrane potential loss in human MCF7 cells at 4 uM incubated for 48 hrs by JC-1 staining based flow cytometry relative to control; format: functional
[9] = AUC in BALB/C mouse at 5 mg/kg, iv by LC-MS/MS analysis; format: ADME, organism-based; set-up: dose 5 mg/kg, route iv; conditions: in vivo
LCC2 [10] = test: Induction of mitochondrial membrane potential loss in tamoxifen-resistant human LCC2 cells at 5 to 30 uM incubated for 48 hrs by JC-1 staining based flow cytometry; format: functional, cell-based; conditions: dose 5-30 µM
[11] = Antiproliferative activity against human MCF-10A cells assessed as reduction in cell viability measured after 72 hrs by Cell Counting Kit-8 assay; format: toxicity, cell-based
MCF7 [12] = test: Induction of apoptosis in human MCF7 cells assessed as decrease in Bcl2 level at 0.5 to 4 uM incubated for 48 hrs by western blot analysis; format: functional, cell-based; conditions: dose 0.5-4 µM
[13] = Toxicity in BALB/C mouse xenografted with tamoxifen-resistant human LCC2 cells assessed as effect on body weight at 20 mg/kg, po measured after 22 days; format: organism-based; conditions: in vivo, 528 h, time 22 day
[14] = Clearance in BALB/C mouse at 5 mg/kg, iv by LC-MS/MS analysis; format: ADME, organism-based; conditions: in vivo
[15] = Toxicity in BALB/C mouse xenografted with human MCF7 cells assessed as change in body weight at 10 to 20 mg/kg, po measured every 2 days for 34 days; format: organism-based; conditions: in vivo, 816 h, dose 10-20 mg/kg, time 34 day
[16] = Half life in BALB/C mouse at 5 mg/kg, iv by LC-MS/MS analysis; format: ADME, organism-based; conditions: in vivo
[17] = molecular target: T1, Hexokinase-1 (Homo sapiens) (UniProt P19367); test: Inhibition of human recombinant hexokinase-1 assessed as NADPH generation measured after 1 hr by HPLC analysis; conditions: DDE = dose-dependent effect
T1 sequence (whole entry): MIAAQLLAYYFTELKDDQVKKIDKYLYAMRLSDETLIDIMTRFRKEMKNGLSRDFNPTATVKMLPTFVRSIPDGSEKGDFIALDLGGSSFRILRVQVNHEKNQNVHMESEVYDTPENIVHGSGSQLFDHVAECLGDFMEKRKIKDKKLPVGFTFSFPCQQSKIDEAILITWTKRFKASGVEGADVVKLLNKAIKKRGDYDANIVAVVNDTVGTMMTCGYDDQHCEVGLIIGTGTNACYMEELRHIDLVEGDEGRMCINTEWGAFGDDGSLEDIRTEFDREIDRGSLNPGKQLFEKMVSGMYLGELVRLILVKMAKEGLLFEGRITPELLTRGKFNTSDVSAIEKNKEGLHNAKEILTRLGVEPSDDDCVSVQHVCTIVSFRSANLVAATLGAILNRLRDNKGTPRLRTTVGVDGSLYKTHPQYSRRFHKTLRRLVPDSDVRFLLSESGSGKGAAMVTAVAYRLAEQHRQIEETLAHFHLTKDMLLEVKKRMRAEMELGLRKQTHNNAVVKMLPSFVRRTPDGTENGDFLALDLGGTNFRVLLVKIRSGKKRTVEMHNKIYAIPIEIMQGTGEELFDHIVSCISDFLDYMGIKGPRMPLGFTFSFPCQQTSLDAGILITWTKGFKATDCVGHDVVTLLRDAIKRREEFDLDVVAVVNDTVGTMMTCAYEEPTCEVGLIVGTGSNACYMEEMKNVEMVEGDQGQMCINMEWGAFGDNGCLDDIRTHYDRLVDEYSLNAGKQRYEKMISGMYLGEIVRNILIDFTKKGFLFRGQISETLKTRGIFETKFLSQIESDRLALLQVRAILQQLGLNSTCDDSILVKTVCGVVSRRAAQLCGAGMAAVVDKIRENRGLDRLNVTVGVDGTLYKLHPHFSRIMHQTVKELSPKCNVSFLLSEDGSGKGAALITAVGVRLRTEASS

LCC2 [18] = test: Downregulation of hexokinase-1 expression in tamoxifen-resistant human LCC2 cell outer mitochondrial membrane measured after 24 hrs by Western blot analysis; format: functional; conditions: Mitochondria
MCF7 [19] = test: Antitumor activity against human MCF7 cells xenografted in BALB/C mouse assessed as suppression of tumor growth at 10 to 20 mg/kg, po measured every 2 days for 34 days; format: functional, organism-based; conditions: dose 10-20 mg/kg, time 34.0 day
MCF7 [20] = test: Antitumor activity against human MCF7 cells xenografted in BALB/C mouse assessed as reduction of tumor weight at 20 mg/kg, po measured every 2 days for 34 days; format: functional, organism-based; conditions: time 34.0 day
MCF7 [21] = test: Downregulation of hexokinase-1 expression in human MCF7 cell outer mitochondrial membrane at 1 to 16 uM measured after 24 hrs by Western blot analysis; format: functional; conditions: Mitochondria, dose 1-16 µM
[22] = Oral bioavailability in BALB/C mouse at 20 mg/kg by LC-MS/MS analysis; format: ADME, organism-based; conditions: in vivo
MCF7 [23] = test: Induction of apoptosis in human MCF7 cells assessed as increase in late apoptotic cells at 0.5 to 4 uM incubated for 48 hrs by annexin V-FITC staining based flow cytometry; format: functional, cell-based; conditions: dose 0.5-4 µM
MCF7 [24] = test: Induction of apoptosis in human MCF7 cells assessed as total apoptotic cells at 4 uM incubated for 48 hrs by annexin V-FITC staining based flow cytometry; format: functional
LCC2 [25] = test: Induction of apoptosis in tamoxifen-resistant human LCC2 cells assessed as decrease in Bcl-2/Bax ratio by western blot analysis; format: functional, cell-based; conditions: DDE = dose-dependent effect
MCF7 [26] = test: Induction of ROS production in human MCF7 cells at 1 to 4 uM measured after 48 hrs by DCFH-DA staining based confocal laser scanning microscopic method; format: functional, cell-based; conditions: dose 1-4 µM
[27] = Toxicity in BALB/C mouse xenografted with human MCF7 cells assessed as mortality at 10 to 20 mg/kg, po measured after 34 days; format: organism-based; conditions: in vivo, 816 h, dose 10-20 mg/kg, time 34 day
MCF7 [28] = test: Induction of apoptosis in human MCF7 cells assessed as increase in Bax level at 0.5 to 4 uM incubated for 48 hrs by western blot analysis; format: functional, cell-based; conditions: dose 0.5-4 µM

O=S(=O)(Oc1cccc2ccccc12)C1CC2OC1C(c1ccc([Se]c3ccccc3)cc1)=C2c1ccc(O)cc1 (stereo not drawn)
Activity (MCF7 [1]): Dde | Activity [2]: Non-Toxic | Activity (MCF7 [3]): 9.16% | Activity [4]: Non-Toxic | AUC [5]: 1430 ng·h/mL | Activity (LCC2 [6]): Active | Activity [7]: Non-Toxic | Activity (MCF7 [8]): 13.87% | AUC [9]: 1550 ng·h/mL | Activity (LCC2 [10]): Active | IC50 at 72 h [11]: > 60 µM | Activity (MCF7 [12]): Active | Activity [13]: Non-Toxic | clearance [14]: 52.7 mL/min/kg | Activity [15]: Non-Toxic | half-life [16]: 4.65 h | Activity [17]: Dde | Activity (LCC2 [18]): Active | Activity (MCF7 [19]): Active | Activity (MCF7 [20]): Active | Activity (MCF7 [21]): Active | bioavailability [22]: 23.2% | Activity (MCF7 [23]): Active | Activity (MCF7 [24]): 19.98% | Activity (LCC2 [25]): Dde | Activity (MCF7 [26]): Active | Activity [27]: Non-Toxic | Activity (MCF7 [28]): Active

Reference: ChEMBL document CHEMBL5154927, “Discovery of Novel Bicyclic Phenylselenyl-Containing Hybrids: An Orally Bioavailable, Potential, and Multiacting Class of Estrogen Receptor Modulators against Endocrine-Resistant Breast Cancer” (J Med Chem, 2022)
